Source: article PMC4291083, “Ex Vivo Characterization of a Novel Iodine-123-Labelled Aminomethylchroman as a Potential Agonist Ligand for SPECT Imaging of Dopamine D2/3 Receptors” (International Journal of Molecular Imaging, 2014)
Marks after values point to notes of the source that are not given here.

Assay: Biodistribution studies in rats
Assay type: in vivo, Wistar rats
Settings: male rats
Method: [^123I]-1 (SA ≥ 37 MBq/nmol) was received after radiolabelling in an isotonic acetate (9% EtOH) buffer (pH 4.8). The solution was passed through a membrane filter (0.2 μm) and was diluted to the proper concentrations. Male Wistar rats (approximately 250 g body weight, obtained from Harlan/Charles River, Zeist, Netherlands) received an intravenous injection in the tail vein of approximately 3.7 MBq/0.4 mL buffer of [^123I]-1 under O2/CO2 anaesthesia. Distribution to the tissue was measured 15 min, 30 min, and 1, 2, 3, 4, and 24 h after the injection to determine the time course of uptake in several organs, including the brain. Four rats were killed at each time point via bleeding by heart puncture (to minimize contribution of blood activity) under O2/CO2 anaesthesia followed by cervical dislocation. Brain regions (cerebellum, frontal and prefrontal cortex, olfactory bulbs, pituitary, medulla with pons, midbrain, striatum, hypothalamus, hippocampus, and thalamus) and various peripheral tissues (heart, lung, liver, spleen, kidney, muscle, fat, and thymus) were quickly excised and weighted. The activity of [^123I] was assayed in a gamma counter, and data was corrected for decay and the amount of radioactivity was presented as percentage of the injected dose, multiplied by the body weight in kilograms, per gram tissue or blood. Selective uptake in the striatum was determined by calculating the ratio of radioactivity in the striatum in relation to that in the cerebellum, since the density of dopamine D2/3 receptor is negligible in this brain area in rats.

123I radioactivity, Fat (3 h after i.v. injection): 0.337 ± 0.065 %ID × kg/g
123I radioactivity, Fat (4 h after i.v. injection): 0.174 ± 0.056 %ID × kg/g
123I radioactivity, Fat (24 h after i.v. injection): 0.016 ± 0.005 %ID × kg/g
123I radioactivity, Frontal cortex (15 min after i.v. injection): 2.567 ± 1.933 %ID × kg/g
123I radioactivity, Frontal cortex (30 min after i.v. injection): 2.329 ± 0.904 %ID × kg/g
123I radioactivity, Frontal cortex (1 h after i.v. injection): 0.722 ± 0.061 %ID × kg/g
123I radioactivity, Frontal cortex (2 h after i.v. injection): 0.223 ± 0.028 %ID × kg/g
123I radioactivity, Frontal cortex (3 h after i.v. injection): 0.232 ± 0.095 %ID × kg/g
123I radioactivity, Frontal cortex (4 h after i.v. injection): 0.109 ± 0.057 %ID × kg/g
123I radioactivity, Frontal cortex (24 h after i.v. injection): 0.024 ± 0.002 %ID × kg/g
123I radioactivity, Hippocampus (15 min after i.v. injection): 0.826 ± 0.475 %ID × kg/g
123I radioactivity, Hippocampus (30 min after i.v. injection): 2.155 ± 0.675 %ID × kg/g
123I radioactivity, Hippocampus (1 h after i.v. injection): 0.866 ± 0.089 %ID × kg/g
123I radioactivity, Hippocampus (2 h after i.v. injection): 0.255 ± 0.040 %ID × kg/g
123I radioactivity, Hippocampus (3 h after i.v. injection): 0.230 ± 0.085 %ID × kg/g
123I radioactivity, Hippocampus (4 h after i.v. injection): 0.093 ± 0.059 %ID × kg/g
123I radioactivity, Hippocampus (24 h after i.v. injection): 0.014 ± 0.001 %ID × kg/g
123I radioactivity, Hypothalamus (15 min after i.v. injection): 1.335 ± 0.766 %ID × kg/g
123I radioactivity, Hypothalamus (30 min after i.v. injection): 1.699 ± 0.526 %ID × kg/g
123I radioactivity, Hypothalamus (1 h after i.v. injection): 0.747 ± 0.111 %ID × kg/g
123I radioactivity, Hypothalamus (2 h after i.v. injection): 0.218 ± 0.036 %ID × kg/g
123I radioactivity, Hypothalamus (3 h after i.v. injection): 0.233 ± 0.070 %ID × kg/g
123I radioactivity, Hypothalamus (4 h after i.v. injection): 0.114 ± 0.051 %ID × kg/g
123I radioactivity, Hypothalamus (24 h after i.v. injection): 0.027 ± 0.005 %ID × kg/g
123I radioactivity, Kidney (15 min after i.v. injection): 1.618 ± 0.774 %ID × kg/g
123I radioactivity, Kidney (30 min after i.v. injection): 1.735 ± 0.353 %ID × kg/g
123I radioactivity, Kidney (1 h after i.v. injection): 1.770 ± 0.302 %ID × kg/g
123I radioactivity, Kidney (2 h after i.v. injection): 1.081 ± 0.154 %ID × kg/g
123I radioactivity, Kidney (3 h after i.v. injection): 1.336 ± 0.175 %ID × kg/g
123I radioactivity, Kidney (4 h after i.v. injection): 1.005 ± 0.397 %ID × kg/g
123I radioactivity, Kidney (24 h after i.v. injection): 0.150 ± 0.026 %ID × kg/g
123I radioactivity, Midbrain (15 min after i.v. injection): 3.566 ± 4.660 %ID × kg/g
123I radioactivity, Midbrain (30 min after i.v. injection): 1.715 ± 0.577 %ID × kg/g
123I radioactivity, Midbrain (1 h after i.v. injection): 0.754 ± 0.040 %ID × kg/g
123I radioactivity, Midbrain (2 h after i.v. injection): 0.229 ± 0.046 %ID × kg/g
123I radioactivity, Midbrain (3 h after i.v. injection): 0.214 ± 0.062 %ID × kg/g
123I radioactivity, Midbrain (4 h after i.v. injection): 0.098 ± 0.059 %ID × kg/g
123I radioactivity, Midbrain (24 h after i.v. injection): 0.020 ± 0.003 %ID × kg/g
123I radioactivity, Muscle (15 min after i.v. injection): 0.412 ± 0.466 %ID × kg/g
123I radioactivity, Muscle (30 min after i.v. injection): 0.363 ± 0.049 %ID × kg/g
123I radioactivity, Olfactory b. (15 min after i.v. injection): 0.445 ± 0.439 %ID × kg/g
123I radioactivity, Olfactory b. (30 min after i.v. injection): 1.325 ± 0.402 %ID × kg/g
123I radioactivity, Olfactory b. (1 h after i.v. injection): 0.631 ± 0.036 %ID × kg/g
123I radioactivity, Olfactory b. (2 h after i.v. injection): 0.218 ± 0.025 %ID × kg/g
123I radioactivity, Olfactory b. (3 h after i.v. injection): 0.234 ± 0.087 %ID × kg/g
123I radioactivity, Olfactory b. (4 h after i.v. injection): 0.112 ± 0.043 %ID × kg/g
123I radioactivity, Olfactory b. (24 h after i.v. injection): 0.020 ± 0.001 %ID × kg/g
123I radioactivity, Pituitary (15 min after i.v. injection, only 1 sample): 1.401^* %ID × kg/g
123I radioactivity, Pituitary (30 min after i.v. injection): 3.367 ± 1.033 %ID × kg/g
123I radioactivity, Pituitary (1 h after i.v. injection): 1.561 ± 0.538 %ID × kg/g
123I radioactivity, Pituitary (2 h after i.v. injection): 0.918 ± 0.632 %ID × kg/g
123I radioactivity, Pituitary (3 h after i.v. injection): 0.548 ± 0.149 %ID × kg/g
123I radioactivity, Pituitary (4 h after i.v. injection): 0.307 ± 0.056 %ID × kg/g
123I radioactivity, Pituitary (24 h after i.v. injection): 0.082 ± 0.006 %ID × kg/g
123I radioactivity, Pons/medulla (15 min after i.v. injection): 1.188 ± 0.587 %ID × kg/g
123I radioactivity, Pons/medulla (30 min after i.v. injection): 1.486 ± 0.274 %ID × kg/g
123I radioactivity, Pons/medulla (1 h after i.v. injection): 0.761 ± 0.040 %ID × kg/g
123I radioactivity, Pons/medulla (2 h after i.v. injection): 0.237 ± 0.045 %ID × kg/g
123I radioactivity, Pons/medulla (3 h after i.v. injection): 0.229 ± 0.066 %ID × kg/g
123I radioactivity, Pons/medulla (4 h after i.v. injection): 0.106 ± 0.057 %ID × kg/g
123I radioactivity, Pons/medulla (24 h after i.v. injection): 0.017 ± 0.001 %ID × kg/g
123I radioactivity, Spleen (15 min after i.v. injection): 2.428 ± 1.971 %ID × kg/g
123I radioactivity, Spleen (30 min after i.v. injection): 1.270 ± 0.282 %ID × kg/g
123I radioactivity, Spleen (1 h after i.v. injection): 0.749 ± 0.093 %ID × kg/g
123I radioactivity, Spleen (2 h after i.v. injection): 0.266 ± 0.047 %ID × kg/g
123I radioactivity, Spleen (3 h after i.v. injection): 0.284 ± 0.092 %ID × kg/g
123I radioactivity, Spleen (4 h after i.v. injection): 0.166 ± 0.087 %ID × kg/g
123I radioactivity, Spleen (24 h after i.v. injection): 0.022 ± 0.003 %ID × kg/g
123I radioactivity, Striatum (15 min after i.v. injection): 1.231 ± 1.299 %ID × kg/g
123I radioactivity, Striatum (30 min after i.v. injection): 1.947 ± 0.666 %ID × kg/g
123I radioactivity, Striatum (1 h after i.v. injection): 0.779 ± 0.037 %ID × kg/g
123I radioactivity, Striatum (2 h after i.v. injection): 0.226 ± 0.034 %ID × kg/g
123I radioactivity, Striatum (3 h after i.v. injection): 0.232 ± 0.065 %ID × kg/g
123I radioactivity, Striatum (4 h after i.v. injection): 0.101 ± 0.051 %ID × kg/g
123I radioactivity, Striatum (24 h after i.v. injection): 0.027 ± 0.010 %ID × kg/g
123I radioactivity, Thalamus (15 min after i.v. injection): 1.556 ± 1.015 %ID × kg/g
123I radioactivity, Thalamus (30 min after i.v. injection): 1.978 ± 0.618 %ID × kg/g
123I radioactivity, Thalamus (1 h after i.v. injection): 0.779 ± 0.049 %ID × kg/g
123I radioactivity, Thalamus (2 h after i.v. injection): 0.234 ± 0.037 %ID × kg/g
123I radioactivity, Thalamus (3 h after i.v. injection): 0.279 ± 0.091 %ID × kg/g
123I radioactivity, Thalamus (4 h after i.v. injection): 0.114 ± 0.047 %ID × kg/g
123I radioactivity, Thalamus (24 h after i.v. injection): 0.033 ± 0.006 %ID × kg/g
Compound: Oc1ccc2c(c1)O[C@@H](CNCc1ccc([123I])cc1)CC2 [[^123I]-1]
